The source of these data is ChEMBL document CHEMBL1201862, “PubChem BioAssay data set” (2004).

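In this assay, cells in 96-well plates receive the compound at five concentrations for 48 hours. Endpoints are linearly interpolated between the surrounding concentrations. GI50 = concentration required for 50% inhibition of growth.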 Activity calls are given as the source filed them. No stated cut-off is given here; in the data, active = GI50 up to about 1.1 µM and inactive = higher. Some results are limits rather than exact numbers.

Common to all, as to test: growth of human tumour cells (NCI), 48 h
Test [1] deals with HCT-116.
The test system of test [2] is HOP-62.
Test [3] deals with 786-0.
The test system of test [4] is T47D.
Test [5] relates to HL-60.
Test [6] relates to NCI-H460.
Test [7] concerns MDA-N.
Test [8] concerns SK-MEL-2.
In test [9] the test system is NCI/ADR-RES.
In test [10] the test system is NCI-H522.
Test [11] concerns RPMI-8226.
In test [12] the test system is PC-3.
Test [13] deals with HT-29.
Test [14] concerns SNB-75.
For test [15], the system named is MDA-MB-231.
The subject of test [16] is NCI-H23.
Test [17] deals with MCF7.
The test system of test [18] is LOX IMVI.
Test [19] deals with HCC 2998.

Regarding `O=C(O)c1ccc(Nc2nc3cc(C(F)(F)F)ccc3n3cccc23)cc1`, the GI50 is 23.1 µM (inactive) in [1]; 41 µM (inactive) in [2]; 22.7 µM (inactive) in [3]; 17.3 µM (inactive) in test [4]; 18.4 µM (inactive) in test [5]; 16.1 µM (inactive) in test [6]. Moreover, the GI50 was 54.6 µM (inactive) in test [7]; 31.3 µM (inactive) in test [8]; 61.9 µM (inactive) in test [9]; 23.4 µM (inactive) in [10]; 12.5 µM (inactive) in [11]; 25.5 µM (inactive) in test [12]. For the same compound, the GI50 in test [13] is 10.4 µM (inactive); in test [14], 24.1 µM (inactive); in test [15], 19.7 µM (inactive); in [16], 35.8 µM (inactive); in test [17], 35.6 µM (inactive); in test [18], 10.2 µM (inactive). Also, in test [19], the GI50 is 15.7 µM (inactive).
As to `CC/C(N)=N\NC(=O)OC(C)(C)C`, the GI50 in test [1], in test [2], in test [3], in [4], in [5] and in [7] was > 100 µM (inactive) throughout. The GI50 in test [8], in test [9], in [10], in [11], in [12] and in test [13] was > 100 µM (inactive) each time. The GI50 in [14], in test [15], in test [16], in test [17], in test [18] and in test [19] was > 100 µM (inactive) in each case.
Take `COc1c2cc(C(C)(C)C)cc1Cc1cccc(c1OCc1cccc([N+](=O)[O-])c1)Cc1cc(C(C)(C)C)cc(c1OC)Cc1cccc(c1OCc1cccc([N+](=O)[O-])c1)Cc1cc(C(C)(C)C)cc(c1OC)Cc1cccc(c1OCc1cccc([N+](=O)[O-])c1)C2`: the GI50 in test [1], in [2], in test [3], in [4], in test [5] and in [6] was > 50 µM (inactive) each time. For the same compound, the GI50 in [7], in test [8], in [9], in [10], in test [11] and in test [12] was > 50 µM (inactive) in each case. Besides, the GI50 in [13] was > 50 µM (inactive); in [14], 23.3 µM (inactive); in test [15] it was > 50 µM (inactive); in [16], > 50 µM (inactive); in test [17], > 50 µM (inactive); in [19], > 50 µM (inactive).
Turning to `CC(=O)NC(=N/N=C1/C(=O)Nc2ccc(C)cc21)NC(C)=O`, the GI50 in [1], in [2], in test [3], in test [4], in test [5] and in test [6] was > 100 µM (inactive) throughout. Also, the GI50 in test [7], in test [8], in [9], in test [10], in test [11] and in [12] was > 100 µM (inactive) in each case. Also, the GI50 is > 100 µM (inactive) in test [13]; 31.6 µM (inactive) in test [14]; > 100 µM (inactive) in test [15]; > 100 µM (inactive) in test [16]; > 100 µM (inactive) in test [17]; > 100 µM (inactive) in [18]. In addition, the GI50 in [19] was > 100 µM (inactive).
In the case of `Cc1cc(=O)oc2cc3oc(N(C)c4ccccc4)nc(=O)c3cc12`, the GI50 in test [1], in test [2], in test [3], in test [4], in [5] and in test [6] was > 100 µM (inactive) each time. For the same compound, the GI50 in [7] is > 100 µM (inactive); in test [8], > 100 µM (inactive); in [9], > 100 µM (inactive); in test [10], 58.9 µM (inactive); in test [11], > 100 µM (inactive); in test [12], > 100 µM (inactive). The GI50 in test [13], in [14], in test [15], in test [16], in test [17] and in [18] was > 100 µM (inactive) in each case. In addition, the GI50 in [19] is > 100 µM (inactive).
Take `CN(C)c1ccc(-c2nc(-c3cc4c(ccc5ccccc54)oc3=O)cs2)cc1`: the GI50 in test [1], in test [2], in [3], in [4], in [5] and in [6] was > 100 µM (inactive) in each case. The GI50 in [7], in test [8], in [9], in [10], in test [11] and in [12] was > 100 µM (inactive) throughout. The GI50 in test [13], in [14], in test [15], in test [17], in test [18] and in test [19] was > 100 µM (inactive) in each case.
Consider `COC(=O)c1c(OC(C)=O)ccc2c1c1cc3ccccc3c(OC(C)=O)c1n2C`, for which the GI50 is 15.4 µM (inactive) in test [1]; 50 µM (inactive) in [2]; 11 µM (inactive) in test [3]; 4.69 µM (inactive) in test [4]; 19.3 µM (inactive) in test [5]; 10.4 µM (inactive) in test [6]. Besides, the GI50 was 33.8 µM (inactive) in test [7]; 29.7 µM (inactive) in [8]; 34.8 µM (inactive) in [9]; 4.97 µM (inactive) in test [10]; 8.63 µM (inactive) in test [11]; 30.1 µM (inactive) in test [12]. Moreover, the GI50 was 15.2 µM (inactive) in test [13]; 4.67 µM (inactive) in [14]; 30 µM (inactive) in test [15]; 17.7 µM (inactive) in test [16]; 9.33 µM (inactive) in test [17]; 33.6 µM (inactive) in test [19].
On to `N=c1c2c(=S)n(-c3ccccc3)c(=S)n(-c3ccccc3)c2nc(SCCN2CCOCC2)n1-c1ccccc1`, for which the GI50 in test [1] is 1.85 µM (inactive); in test [2], 2.12 µM (inactive); in [3] it was 1.76 µM (inactive); in test [4] it was 2.69 µM (inactive); in test [5], 1.41 µM (inactive); in test [6], 2.49 µM (inactive). The GI50 was 2.26 µM (inactive) in [7]; 2.86 µM (inactive) in [8]; 3.67 µM (inactive) in test [9]; 1.67 µM (inactive) in [10]; 1.04 µM (active) in [11]; 1.85 µM (inactive) in test [12]. Further, the GI50 was 2.05 µM (inactive) in test [13]; 2.07 µM (inactive) in test [14]; 2.12 µM (inactive) in test [15]; 2.67 µM (inactive) in test [16]; 1.35 µM (inactive) in [17]; 1.71 µM (inactive) in [18]. Also, the GI50 in [19] was 1.77 µM (inactive).
`O=C1CC(O)c2c(Br)sc(Br)c21` (stereo unspecified): the GI50 was 12.4 µM (inactive) in test [1]; 10.6 µM (inactive) in test [2]; 4.1 µM (inactive) in test [3]; 9.59 µM (inactive) in [4]; 3.2 µM (inactive) in [5]; 16.9 µM (inactive) in test [6]. Also, the GI50 in test [7] is 8.81 µM (inactive); in test [8], 14 µM (inactive); in test [9] it was 30.3 µM (inactive); in test [10], 8.28 µM (inactive); in test [11] it was 2.47 µM (inactive); in [12], 13 µM (inactive). Besides, the GI50 was 17.7 µM (inactive) in [13]; 16 µM (inactive) in [14]; 15.2 µM (inactive) in test [15]; 22.7 µM (inactive) in [16]; 3.46 µM (inactive) in test [17]; 4.48 µM (inactive) in test [18]. Also, the GI50 in test [19] is 6 µM (inactive).
Turning to `COc1ccc(C(C)NNC(=O)c2cc[n+]([BH2-]C#N)cc2)cc1F` (stereo unspecified), the GI50 in [1], in test [2], in test [3], in test [4], in [5] and in [6] was > 100 µM (inactive) throughout. The GI50 in test [7], in test [8], in test [9], in test [10], in test [11] and in test [12] was > 100 µM (inactive) in each case. Moreover, the GI50 in test [13] is > 100 µM (inactive); in test [14], > 100 µM (inactive); in test [15] it was > 100 µM (inactive); in test [16], 96.2 µM (inactive); in [17] it was > 100 µM (inactive); in test [18] it was > 100 µM (inactive). Also, the GI50 in [19] is > 100 µM (inactive).
